{"source": "patent US11110209B2", "about": "“Intraluminal therapy system for gastrointestinal infections” (MACKAY MEDICAL FOUNDATION THE PRESBYTERIAN CHURCH IN TAIWAN …, priority 2017, dated 2021)", "experiment": "Clinical study: gastric juice pH after irrigation", "type": "in vivo", "conditions": "patients; acetylcysteine (12 mg/ml) solution irrigation of gastric mucosa after two tablets of sublingual Takepron", "description": "Ten patients having H. pylori infection without prior eradication therapy were enrolled. Before the intraluminal therapy, two tablets of proton pump inhibitor (Takepron) were sublingually administered to the patient. Using the system of the invention, the gastric mucosa was irrigated with acetylcysteine (12 mg/ml) solution to remove the acid and mucous on the gastric mucosa. The pH levels before and after irrigation were measured. The acidity of the gastric juice could be well controlled at around pH 5.0 after irrigation. The total dosage of acetylcysteine was less than 140 mg/kg. Then amoxicillin, metronidazole, clarithromycin, sucrate gel and distilled water were mixed to form a complex. […] The viscosities of the complexes were shown below.", "data": [{"smiles": "CC(=O)N[C@@H](CS)C(=O)O", "note": "[acetylcysteine]", "values": [{"measurement": "pH of gastric juice after irrigation", "value": "~5.0", "unit": "pH"}]}]}
